The text below walks through data of patent US20120095032A1, “METHODS FOR TREATING LEUKEMIA AND MYELODYSPLASTIC SYNDROME, AND METHODS FOR IDENTIFYING AGENTS FOR TREATING SAME” (Sanford-Burnham Medical Research Institute, priority 2007, published 2012).

For assay [1], the target named is T1, HePTP (Homo sapiens, UniProt P35236).
T1 sequence (P35236 1-360): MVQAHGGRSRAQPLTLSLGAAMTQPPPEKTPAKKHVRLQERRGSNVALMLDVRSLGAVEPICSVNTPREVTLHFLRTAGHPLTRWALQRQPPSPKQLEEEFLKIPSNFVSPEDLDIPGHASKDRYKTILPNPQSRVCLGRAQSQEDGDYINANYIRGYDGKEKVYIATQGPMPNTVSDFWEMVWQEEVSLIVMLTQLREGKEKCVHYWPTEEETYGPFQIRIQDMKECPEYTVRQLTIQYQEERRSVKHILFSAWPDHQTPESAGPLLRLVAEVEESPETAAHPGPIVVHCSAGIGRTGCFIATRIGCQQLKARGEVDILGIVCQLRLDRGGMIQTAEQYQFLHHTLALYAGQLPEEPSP
As to the kind of experiment: HePTP dose-response confirmation screening. The conditions noted are these: for IC50: 10 concentrations, 2-fold serial dilution, pNPP substrate; for n / nH (Hill coefficient): Hill coefficient of the dose-response curve. It counts as biochemical.

Assay [2] has as its target T1, HePTP. Kind of assay: HePTP HTS primary screen (colorimetric pNPP / Biomol Green). The assay is classed as biochemical. The note with it: 20 μM compound; read-out: % Inhib. at 20 μM.

A word on the IC50: it is the concentration that gives 50% inhibition. Low values mean greater potency in that assay, high ones weaker potency in that assay. On to `Cn1nnnc1SCC1=C(C(=O)[O-])N2C(=O)[C@H](NC(=O)[C@H](O)c3ccccc3)[C@H]2SC1.[Na+]` [Sodium (6R,7S)-7-[[(2R)-2-hydroxy-2-phenyl-acetyl]amino]-3-[(1-methyltetrazol-5-yl)sulfanylmethyl]-8-oxo-5-thia-1-azabicyclo[4.2.0]oct-2-ene-2-carboxylate], for which, on HePTP [1], the IC50 was 0.1 µM and the “n / nH (Hill coefficient)” value stood at 0.6. Besides, on HePTP [2], the inhibition at 20 µM worked out at 98%.

For `CC(C)Cn1c(N)c(C(=O)COC(=O)c2cc(-c3ccco3)nc3ccccc23)c(=O)n(C)c1=O` [[2-[4-Amino-1-methyl-3-(2-methylpropyl)-2,6-dioxo-pyrimidin-5-yl]-2-oxo-ethyl] 2-(2-furyl)quinoline-4-carboxylate], on HePTP [1], inhibition was half-maximal at 5.27 µM (IC50) and the “n / nH (Hill coefficient)” value worked out at 2.48. Further, the inhibition at 20 µM on HePTP [2] is 89.7%.

For `COc1ccc(C(=O)c2no[n+]([O-])c2C(=O)c2ccc(OC)cc2)cc1` [[4-(4-Methoxybenzoyl)-2-oxido-1-oxa-5-aza-2-azoniacyclopenta-2,4-dien-3-yl]-(4-methoxyphenyl)methanone], at HePTP [1], the midpoint of inhibition, the IC50, lay at 11.3 µM and the “n / nH (Hill coefficient)” value is 0.45. For the same molecule, the inhibition at 20 µM on HePTP [2] worked out at 86.3%.

Regarding `CC(C)CN(C(=O)COC(=O)c1cc2c(s1)CCC2)C1CCS(=O)(=O)C1` (stereo not drawn) [[(1,1-Dioxothiolan-3-yl)-(2-methylpropyl)carbamoyl]methyl 4-thiabicyclo[3.3.0]octa-2,9-diene-3-carboxylate], on HePTP [1], the IC50 was 1.21 µM and the “n / nH (Hill coefficient)” value was 1.52. Also, on HePTP [2], the inhibition at 20 µM is 58.7%.
